In ChEMBL document CHEMBL5291721, “A preclinical secondary pharmacology resource illuminates target-adverse drug reaction associations of marketed drugs” (Nat Commun, 2023):

What was measured:
[1] = target: Vascular endothelial growth factor receptor 2 (Homo sapiens, UniProt P35968); format: functional
[2] = target: Beta-2 adrenergic receptor (Homo sapiens, UniProt P07550)
[3] = target: T1, 5-hydroxytryptamine receptor 1A (Homo sapiens, UniProt P08908)
T1 sequence (P08908 whole entry): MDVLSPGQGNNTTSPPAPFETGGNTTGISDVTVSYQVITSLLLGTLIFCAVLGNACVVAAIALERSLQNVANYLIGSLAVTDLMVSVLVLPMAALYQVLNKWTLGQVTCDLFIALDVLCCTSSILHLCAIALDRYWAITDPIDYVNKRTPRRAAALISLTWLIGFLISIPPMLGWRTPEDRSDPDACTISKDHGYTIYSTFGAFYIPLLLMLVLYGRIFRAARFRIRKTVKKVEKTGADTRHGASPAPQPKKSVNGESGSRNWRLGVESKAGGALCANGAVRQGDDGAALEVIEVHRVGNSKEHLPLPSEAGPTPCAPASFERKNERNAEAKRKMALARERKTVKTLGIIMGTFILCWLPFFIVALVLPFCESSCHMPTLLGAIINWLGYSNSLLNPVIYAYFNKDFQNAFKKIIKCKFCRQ

[4] = target: Glucagon receptor (Homo sapiens, UniProt P47871)
Chain of Glucagon receptor (P47871 whole entry): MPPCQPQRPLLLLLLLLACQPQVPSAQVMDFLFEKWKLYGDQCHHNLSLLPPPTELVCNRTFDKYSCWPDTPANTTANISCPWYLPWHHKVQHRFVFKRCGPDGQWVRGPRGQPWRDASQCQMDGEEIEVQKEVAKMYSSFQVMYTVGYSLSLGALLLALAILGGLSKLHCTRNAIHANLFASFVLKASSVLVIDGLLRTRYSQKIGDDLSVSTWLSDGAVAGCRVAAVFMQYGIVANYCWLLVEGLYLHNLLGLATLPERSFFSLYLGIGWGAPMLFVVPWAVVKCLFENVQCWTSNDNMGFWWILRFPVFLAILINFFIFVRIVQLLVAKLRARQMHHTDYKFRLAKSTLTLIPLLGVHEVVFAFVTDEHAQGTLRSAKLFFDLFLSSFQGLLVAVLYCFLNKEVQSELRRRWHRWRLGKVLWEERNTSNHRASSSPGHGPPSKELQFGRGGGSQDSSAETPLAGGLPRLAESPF

[5] = target: Neurotensin receptor type 1 (Homo sapiens, UniProt P30989)
Chain of Neurotensin receptor type 1 (P30989 whole entry): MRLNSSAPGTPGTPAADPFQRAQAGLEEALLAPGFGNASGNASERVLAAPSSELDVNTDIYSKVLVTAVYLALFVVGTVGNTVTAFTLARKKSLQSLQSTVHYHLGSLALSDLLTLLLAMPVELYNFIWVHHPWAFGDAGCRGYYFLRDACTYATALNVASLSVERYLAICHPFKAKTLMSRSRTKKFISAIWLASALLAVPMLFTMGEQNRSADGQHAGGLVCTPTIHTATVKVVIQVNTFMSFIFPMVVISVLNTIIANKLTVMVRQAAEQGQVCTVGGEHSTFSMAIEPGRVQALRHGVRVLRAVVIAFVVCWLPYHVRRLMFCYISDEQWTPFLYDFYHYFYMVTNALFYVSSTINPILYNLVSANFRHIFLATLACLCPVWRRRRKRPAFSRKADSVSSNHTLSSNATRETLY

[6] = target: Voltage-dependent N-type calcium channel subunit alpha-1B (Rattus norvegicus, UniProt Q02294); format: functional
[7] = target: T2, Progesterone receptor (Homo sapiens, UniProt P06401)
T2 sequence (P06401 whole entry): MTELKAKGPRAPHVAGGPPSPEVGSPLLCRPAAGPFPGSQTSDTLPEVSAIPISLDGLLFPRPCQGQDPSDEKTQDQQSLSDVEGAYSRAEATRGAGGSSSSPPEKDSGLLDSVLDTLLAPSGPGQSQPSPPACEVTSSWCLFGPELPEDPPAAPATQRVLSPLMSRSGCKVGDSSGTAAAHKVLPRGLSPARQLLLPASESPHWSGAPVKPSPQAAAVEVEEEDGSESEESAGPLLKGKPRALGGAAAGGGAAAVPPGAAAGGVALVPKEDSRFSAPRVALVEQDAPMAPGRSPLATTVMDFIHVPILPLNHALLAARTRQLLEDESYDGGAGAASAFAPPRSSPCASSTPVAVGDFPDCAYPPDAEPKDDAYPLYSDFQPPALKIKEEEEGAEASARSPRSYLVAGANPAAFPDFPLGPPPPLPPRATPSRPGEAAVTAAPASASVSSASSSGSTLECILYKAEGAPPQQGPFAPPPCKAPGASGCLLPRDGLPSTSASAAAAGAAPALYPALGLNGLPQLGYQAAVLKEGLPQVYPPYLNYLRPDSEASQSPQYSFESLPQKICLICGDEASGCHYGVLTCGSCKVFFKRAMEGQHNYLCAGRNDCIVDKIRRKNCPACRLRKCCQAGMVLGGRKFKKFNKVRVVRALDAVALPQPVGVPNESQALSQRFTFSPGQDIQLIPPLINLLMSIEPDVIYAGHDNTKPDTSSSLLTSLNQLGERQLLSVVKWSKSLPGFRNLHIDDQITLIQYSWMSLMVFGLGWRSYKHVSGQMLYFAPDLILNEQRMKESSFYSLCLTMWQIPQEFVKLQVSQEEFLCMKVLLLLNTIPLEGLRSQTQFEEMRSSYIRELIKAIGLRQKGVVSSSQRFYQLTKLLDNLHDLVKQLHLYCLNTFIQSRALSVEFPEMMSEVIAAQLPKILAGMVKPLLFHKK

[8] = target: Sodium channel protein type 5 subunit alpha (Homo sapiens, UniProt Q14524); format: functional, cell-based
Chain of Sodium channel protein type 5 subunit alpha (Q14524 whole entry): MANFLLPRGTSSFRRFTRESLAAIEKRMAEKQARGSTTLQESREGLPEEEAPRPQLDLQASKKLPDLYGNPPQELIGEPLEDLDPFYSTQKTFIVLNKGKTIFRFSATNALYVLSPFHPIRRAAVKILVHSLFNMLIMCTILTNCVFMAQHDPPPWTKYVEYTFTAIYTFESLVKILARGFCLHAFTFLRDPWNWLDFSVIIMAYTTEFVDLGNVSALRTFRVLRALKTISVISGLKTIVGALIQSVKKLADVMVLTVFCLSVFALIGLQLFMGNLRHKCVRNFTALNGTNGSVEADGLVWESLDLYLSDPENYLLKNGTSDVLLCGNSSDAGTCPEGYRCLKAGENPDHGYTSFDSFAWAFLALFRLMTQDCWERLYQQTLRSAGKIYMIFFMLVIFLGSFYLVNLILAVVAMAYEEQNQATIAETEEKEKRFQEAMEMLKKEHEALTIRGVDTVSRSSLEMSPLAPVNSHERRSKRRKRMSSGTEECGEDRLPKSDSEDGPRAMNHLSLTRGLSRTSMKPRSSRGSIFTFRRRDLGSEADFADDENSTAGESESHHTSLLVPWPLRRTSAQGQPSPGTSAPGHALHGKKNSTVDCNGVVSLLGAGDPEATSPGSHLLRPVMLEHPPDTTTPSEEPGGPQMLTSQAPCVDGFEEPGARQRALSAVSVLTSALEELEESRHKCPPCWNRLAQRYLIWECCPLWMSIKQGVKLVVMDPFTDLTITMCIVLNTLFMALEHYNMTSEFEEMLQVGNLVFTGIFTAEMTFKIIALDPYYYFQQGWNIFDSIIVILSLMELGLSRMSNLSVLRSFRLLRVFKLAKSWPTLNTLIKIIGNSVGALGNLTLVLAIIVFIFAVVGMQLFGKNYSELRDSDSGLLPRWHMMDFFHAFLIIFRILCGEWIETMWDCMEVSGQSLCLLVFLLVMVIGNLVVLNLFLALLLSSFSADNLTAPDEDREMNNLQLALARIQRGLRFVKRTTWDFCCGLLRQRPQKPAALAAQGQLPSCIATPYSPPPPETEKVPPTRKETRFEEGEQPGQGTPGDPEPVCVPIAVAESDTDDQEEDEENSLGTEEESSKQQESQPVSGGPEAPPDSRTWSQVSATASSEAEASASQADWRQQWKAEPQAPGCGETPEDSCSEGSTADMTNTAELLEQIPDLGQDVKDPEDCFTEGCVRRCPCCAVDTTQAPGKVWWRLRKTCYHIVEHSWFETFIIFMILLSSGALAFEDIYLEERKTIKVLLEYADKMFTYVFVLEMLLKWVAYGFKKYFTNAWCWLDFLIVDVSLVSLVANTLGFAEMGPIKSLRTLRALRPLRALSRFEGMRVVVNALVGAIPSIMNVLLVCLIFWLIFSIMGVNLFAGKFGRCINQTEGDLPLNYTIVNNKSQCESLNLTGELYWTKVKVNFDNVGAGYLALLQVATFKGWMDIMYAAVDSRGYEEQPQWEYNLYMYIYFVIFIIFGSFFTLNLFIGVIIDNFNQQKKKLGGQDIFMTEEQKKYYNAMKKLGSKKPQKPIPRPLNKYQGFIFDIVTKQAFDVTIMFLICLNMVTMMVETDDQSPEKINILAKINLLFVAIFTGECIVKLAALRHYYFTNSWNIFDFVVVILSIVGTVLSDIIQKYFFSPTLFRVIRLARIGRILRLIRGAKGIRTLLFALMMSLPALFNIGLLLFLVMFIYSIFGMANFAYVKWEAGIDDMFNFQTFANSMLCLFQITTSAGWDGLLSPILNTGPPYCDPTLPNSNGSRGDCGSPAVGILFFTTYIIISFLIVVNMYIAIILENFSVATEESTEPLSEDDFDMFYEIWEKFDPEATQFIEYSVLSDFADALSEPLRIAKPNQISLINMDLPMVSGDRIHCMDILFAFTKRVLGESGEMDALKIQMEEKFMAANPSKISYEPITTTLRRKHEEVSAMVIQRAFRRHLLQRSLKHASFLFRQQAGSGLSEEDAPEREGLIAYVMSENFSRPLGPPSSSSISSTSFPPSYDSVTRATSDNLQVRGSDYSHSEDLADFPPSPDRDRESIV

[9] = target: T3, B1 bradykinin receptor (Homo sapiens, UniProt P46663)
T3 sequence (P46663 whole entry): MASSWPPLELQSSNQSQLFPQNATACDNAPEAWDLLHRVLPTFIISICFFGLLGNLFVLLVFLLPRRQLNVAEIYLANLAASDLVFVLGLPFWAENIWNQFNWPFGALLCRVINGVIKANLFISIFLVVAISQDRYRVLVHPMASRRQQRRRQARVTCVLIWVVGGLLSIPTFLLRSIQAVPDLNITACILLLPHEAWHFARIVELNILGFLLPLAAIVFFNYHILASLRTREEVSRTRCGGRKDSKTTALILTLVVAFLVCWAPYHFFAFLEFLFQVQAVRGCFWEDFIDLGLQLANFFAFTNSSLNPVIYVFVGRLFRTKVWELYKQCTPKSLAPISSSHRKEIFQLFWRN

[10] = target: Beta-3 adrenergic receptor (Homo sapiens, UniProt P13945)
Chain of Beta-3 adrenergic receptor (P13945 whole entry): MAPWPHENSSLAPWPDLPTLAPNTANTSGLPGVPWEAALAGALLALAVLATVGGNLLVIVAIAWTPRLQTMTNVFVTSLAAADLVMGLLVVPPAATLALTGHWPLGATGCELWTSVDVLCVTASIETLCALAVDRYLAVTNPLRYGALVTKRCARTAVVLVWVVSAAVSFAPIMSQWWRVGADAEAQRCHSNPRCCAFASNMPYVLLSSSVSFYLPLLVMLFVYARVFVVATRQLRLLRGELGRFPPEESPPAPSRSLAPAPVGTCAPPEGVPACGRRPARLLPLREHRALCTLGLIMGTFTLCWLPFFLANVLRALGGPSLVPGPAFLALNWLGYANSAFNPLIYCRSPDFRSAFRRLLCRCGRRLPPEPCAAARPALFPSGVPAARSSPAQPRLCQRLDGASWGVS

[11] = target: T4, Corticotropin-releasing factor receptor 2 (Homo sapiens, UniProt Q13324)
T4 sequence (Q13324 whole entry): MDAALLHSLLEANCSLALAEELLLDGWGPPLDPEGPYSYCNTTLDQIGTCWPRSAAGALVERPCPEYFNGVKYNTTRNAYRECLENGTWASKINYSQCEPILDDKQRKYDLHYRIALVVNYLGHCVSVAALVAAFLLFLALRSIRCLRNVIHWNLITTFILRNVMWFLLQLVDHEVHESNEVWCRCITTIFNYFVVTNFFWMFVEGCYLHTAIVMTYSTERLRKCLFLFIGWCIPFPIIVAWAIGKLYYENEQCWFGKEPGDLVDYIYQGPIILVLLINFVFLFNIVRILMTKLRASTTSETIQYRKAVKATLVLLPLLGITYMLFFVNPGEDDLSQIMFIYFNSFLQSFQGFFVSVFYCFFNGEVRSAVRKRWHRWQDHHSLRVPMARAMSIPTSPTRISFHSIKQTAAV
Further: assay procedure not described here.

Chain of Vascular endothelial growth factor receptor 2 (P35968 whole entry): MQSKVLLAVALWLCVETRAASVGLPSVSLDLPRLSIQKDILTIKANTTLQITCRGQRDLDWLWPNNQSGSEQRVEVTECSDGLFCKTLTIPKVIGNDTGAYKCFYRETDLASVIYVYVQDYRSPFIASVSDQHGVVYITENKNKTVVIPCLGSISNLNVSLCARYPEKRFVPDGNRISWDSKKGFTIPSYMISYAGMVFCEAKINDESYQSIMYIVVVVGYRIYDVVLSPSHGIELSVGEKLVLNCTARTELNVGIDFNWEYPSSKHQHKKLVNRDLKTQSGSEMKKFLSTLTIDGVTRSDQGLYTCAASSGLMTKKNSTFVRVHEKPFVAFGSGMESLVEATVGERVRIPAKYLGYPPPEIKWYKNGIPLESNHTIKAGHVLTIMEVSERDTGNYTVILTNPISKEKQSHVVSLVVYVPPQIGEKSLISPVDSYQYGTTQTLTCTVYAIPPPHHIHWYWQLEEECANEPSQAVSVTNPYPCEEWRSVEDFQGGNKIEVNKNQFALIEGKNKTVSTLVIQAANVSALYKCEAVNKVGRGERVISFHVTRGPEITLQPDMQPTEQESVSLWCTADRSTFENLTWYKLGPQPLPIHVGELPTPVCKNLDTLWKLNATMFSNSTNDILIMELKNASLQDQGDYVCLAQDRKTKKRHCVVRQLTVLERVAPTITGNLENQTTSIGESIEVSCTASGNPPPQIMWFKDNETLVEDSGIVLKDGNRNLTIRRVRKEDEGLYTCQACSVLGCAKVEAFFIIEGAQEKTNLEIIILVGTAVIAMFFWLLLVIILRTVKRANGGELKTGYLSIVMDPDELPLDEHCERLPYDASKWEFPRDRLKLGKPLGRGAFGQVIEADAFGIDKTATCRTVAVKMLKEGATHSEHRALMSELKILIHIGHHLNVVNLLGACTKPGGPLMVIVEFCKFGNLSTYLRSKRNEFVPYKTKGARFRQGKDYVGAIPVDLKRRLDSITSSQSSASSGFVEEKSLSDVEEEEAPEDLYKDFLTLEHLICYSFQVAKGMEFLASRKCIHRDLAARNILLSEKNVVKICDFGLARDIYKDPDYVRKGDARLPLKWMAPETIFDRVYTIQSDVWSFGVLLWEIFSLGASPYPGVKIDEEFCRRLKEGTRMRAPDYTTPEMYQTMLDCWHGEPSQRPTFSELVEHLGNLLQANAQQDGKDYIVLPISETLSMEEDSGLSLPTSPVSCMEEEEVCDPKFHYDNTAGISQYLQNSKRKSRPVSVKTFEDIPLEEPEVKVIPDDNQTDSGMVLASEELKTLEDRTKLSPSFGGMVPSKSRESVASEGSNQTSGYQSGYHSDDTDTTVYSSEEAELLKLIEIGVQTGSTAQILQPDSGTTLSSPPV
Chain of Beta-2 adrenergic receptor (P07550 whole entry): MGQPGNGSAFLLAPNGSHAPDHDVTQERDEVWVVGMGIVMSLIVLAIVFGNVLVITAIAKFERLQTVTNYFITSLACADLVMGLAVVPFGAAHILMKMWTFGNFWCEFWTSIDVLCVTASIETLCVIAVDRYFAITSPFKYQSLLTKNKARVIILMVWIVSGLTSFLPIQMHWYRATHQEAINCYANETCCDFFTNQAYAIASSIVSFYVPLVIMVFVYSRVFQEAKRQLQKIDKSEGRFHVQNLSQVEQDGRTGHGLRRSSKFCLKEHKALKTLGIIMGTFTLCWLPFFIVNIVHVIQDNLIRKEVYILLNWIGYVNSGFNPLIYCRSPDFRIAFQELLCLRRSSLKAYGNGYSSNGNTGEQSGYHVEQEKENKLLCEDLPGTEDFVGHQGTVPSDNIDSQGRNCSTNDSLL

Row | Structure (SMILES) | AC50 [1] [µM] | AC50 [2] [µM] | AC50 [3] [µM] | AC50 [4] [µM] | AC50 [5] [µM] | AC50 [6] [µM] | AC50 [7] [µM] | AC50 [8] [µM] | AC50 [9] [µM] | AC50 [10] [µM] | AC50 [11] [µM]
1 | CC(=N)N1CC[C@H](SC2=C(C(=O)O)N3C(=O)[C@H]([C@@H](C)O)[C@H]3C2)C1 | > 300 |  |  |  |  |  |  |  |  |  | 
2 | CC(/C=C1\SC(=S)N(CC(=O)O)C1=O)=C\c1ccccc1 |  | > 30 |  |  |  |  |  |  |  |  | 
3 | CC1(C)S[C@@H]2[C@H](NC(=O)[C@H](N)c3ccc(O)cc3)C(=O)N2[C@H]1C(=O)O [AMOXICILLIN] |  | > 30 | > 10 | > 30 | > 30 | > 10 | > 30 | > 30 | > 30 | > 30 | > 30
4 | O=C1CN2Cc3c(ccc(Cl)c3Cl)N=C2N1 [ANAGRELIDE] |  | > 10 | > 10 |  |  |  | > 30 |  |  |  | 
5 | CCc1oc2ccccc2c1C(=O)c1cc(Br)c(O)c(Br)c1 [BENZBROMARONE] |  | > 30 | > 10 |  |  |  | > 30 |  |  |  | 
6 | Cc1ccc([C@@H]2O[C@H](CO)[C@@H](O)[C@H](O)[C@H]2O)cc1Cc1ccc(-c2ccc(F)cc2)s1 [CANAGLIFLOZIN ANHYDROUS] |  |  |  |  |  |  |  | > 50 |  |  | 
7 | [H]/N=C(\N/C(=N/[H])NCCCCCCNC(=N)NC(=N)Nc1ccc(Cl)cc1)Nc1ccc(Cl)cc1 [CHLORHEXIDINE] |  | 6.5 |  |  |  |  |  |  |  |  | 
8 | Clc1cccc(Cl)c1N=C1NCCN1 [CLONIDINE] |  |  | > 10 | > 30 | > 30 | > 10 | > 30 |  | > 30 | > 30 | > 30
9 | COC(=O)[C@H](c1ccccc1Cl)N1CCc2sccc2C1 [CLOPIDOGREL] |  | > 30 | > 10 | > 30 | > 30 | > 10 | > 30 |  | > 30 | > 30 | > 30
10 | CN1C[C@H](C(=O)N[C@]2(C)O[C@@]3(O)[C@@H]4CCCN4C(=O)[C@H](Cc4ccccc4)N3C2=O)C[C@@H]2c3cccc4[nH]cc(c34)C[C@H]21 [DIHYDROERGOTAMINE] |  |  | 0.0126 | > 30 | > 30 | > 10 | > 30 |  | > 30 | 0.26 | > 30
11 | CNCC[C@H](Oc1cccc2ccccc12)c1cccs1 [DULOXETINE] |  |  |  |  |  |  | > 30 | 5.3 |  |  | 
12 | Nc1nc(O)c2ncn(COC(CO)CO)c2n1 [GANCICLOVIR] |  | > 30 |  |  |  |  |  |  |  |  | 
13 | Cc1cnc(NC(=O)C2=C(O)c3ccccc3S(=O)(=O)N2C)s1 [MELOXICAM] |  | > 10 | > 10 | > 30 | > 30 | > 10 | > 30 |  | > 30 | > 30 | > 30
14 | CC(=O)/N=c1/sc(S(N)(=O)=O)nn1C [METHAZOLAMIDE] |  | > 10 |  |  |  |  |  |  |  |  | 
15 | CC(=O)Oc1ccccc1C(=O)Nc1ncc([N+](=O)[O-])s1 [NITAZOXANIDE] |  | 7.8 |  |  |  |  |  |  |  |  | 
16 | COc1ccnc(C[S+]([O-])c2nc3ccc(OC(F)F)cc3[nH]2)c1OC (stereo unspecified) [PANTOPRAZOLE] |  | > 10 | > 10 | > 30 | > 30 | > 10 | > 30 |  | > 30 | > 30 | > 30
17 | CNC[C@H](O)c1cccc(O)c1 [PHENYLEPHRINE] |  |  | > 10 | > 30 | > 30 | > 10 | > 30 | > 30 | > 30 |  | > 30
18 | CC(C)C[C@H](CN)CC(=O)O [PREGABALIN] | > 30 | > 30 | > 10 | > 30 | > 30 | > 10 | 20.2 |  | > 30 | > 30 | > 30
19 | NC(=O)c1ncn([C@@H]2O[C@H](CO)[C@@H](O)[C@H]2O)n1 [RIBAVIRIN] |  | > 10 |  |  |  |  |  | > 50 |  |  | 
20 | O=C(Nc1c(Cl)cncc1Cl)c1ccc(OC(F)F)c(OCC2CC2)c1 [ROFLUMILAST] |  | > 30 |  |  |  |  |  | > 50 |  |  | 
21 | CCCN(CCC)CCc1cccc2c1CC(=O)N2 [ROPINIROLE] | > 30 | > 10 | 8.15 | > 30 | > 30 | > 10 | > 30 |  | > 30 | > 30 | > 30
22 | CCCN(CCc1cccs1)[C@H]1CCc2c(O)cccc2C1 [ROTIGOTINE] | > 30 |  |  |  |  |  |  |  |  |  | 
23 | CC[C@H]1OC(=O)[C@H](C)[C@@H](O[C@H]2C[C@@](C)(OC)[C@@H](O)[C@H](C)O2)[C@H](C)[C@@H](O[C@@H]2O[C@H](C)C[C@H](N(C)C)[C@H]2O)[C@](C)(O)C[C@@H](C)/C(=N\OCOCCOC)[C@H](C)[C@@H](O)[C@]1(C)O [ROXITHROMYCIN] | > 30 |  |  |  |  |  |  |  |  |  | 
24 | CC(C)N(CCCCOCC(=O)NS(C)(=O)=O)c1cnc(-c2ccccc2)c(-c2ccccc2)n1 [SELEXIPAG] |  | > 30 |  |  |  |  |  | 45 |  |  | 
25 | CC(=O)S[C@@H]1CC2=CC(=O)CC[C@]2(C)[C@H]2CC[C@@]3(C)[C@@H](CC[C@@]34CCC(=O)O4)[C@H]12 [SPIRONOLACTONE] | > 30 | > 10 | > 10 | > 30 | > 30 | > 10 |  |  | > 30 | > 30 | > 30
26 | NC(=O)NS(=O)(=O)c1ccc(N)cc1 [SULFACARBAMIDE] |  |  |  |  |  |  |  | > 50 |  |  | 
27 | CCCCCCCCNC(C)C(O)c1ccc(SC(C)C)cc1 (stereo unspecified) [SULOCTIDIL] |  |  |  |  |  |  |  | 7.7 |  |  | 
28 | CCCCNc1ccc(C(=O)OCCN(C)C)cc1 [TETRACAINE] |  | > 10 | > 10 | > 30 | 9.9 | > 10 | > 30 |  | > 30 | > 30 | > 30
29 | Cn1c(=O)c2[nH]cnc2n(C)c1=O [THEOPHYLLINE] |  | > 10 | > 10 | > 30 | > 30 | > 10 | > 30 |  | > 30 |  | > 30
30 | CC1(C)O[C@@H]2[C@@H](CO[C@@]3(COS(N)(=O)=O)OC(C)(C)O[C@@H]23)O1 [TOPIRAMATE] |  | > 10 | > 10 | > 30 | > 30 | > 10 | > 30 |  | > 30 | > 30 | > 30
